Type in all cases: cell-based
In assay [1] the test system is T47D (a breast cancer cell line). Kind of assay: cells. Conditions: Homo sapiens, 144 h.
For assay [2], the system named is MCF-7 (a breast cancer cell line). Kind of assay: In-vitro cell viability assay (CellTiter-Glo). Conditions: MCF7a, 144 h. (In general: In ATP-based viability assays light output follows the ATP content of the culture.)
Assay [3] relates to KYSE-520 (an esophageal cancer cell line). Kind of assay: In-vitro cell viability assay (CellTiter-Glo). Conditions: Homo sapiens.
Assay [4] deals with Caski (a cervical cancer cell line). Nature of the assay: In-vitro cell viability assay (CellTiter-Glo). The following applies: Homo sapiens, Ca-Ski, 144 h.
The test system of assay [5] is HPAF-II (a pancreatic cancer cell line). Kind of assay: In-vitro cell viability assay (CellTiter-Glo). Conditions: Homo sapiens, 144 h.
Assay [6] has as its system A431 (a skin cancer cell line). Kind of assay: In-vitro cell viability assay (CellTiter-Glo). Conditions: Homo sapiens, A-431, 144 h.
Where [7] appears, read: 6 days incubation, read-out: IC50.

Where two headings read alike, the source gives them in different places. Where a SMILES comes first, the peptide text is derived from it. [ ]: non-standard residue; d: D form. The star is where a group is joined. Dolaproine = CO[C@@H]([C@@H]1CCCN1)[C@@H](C)C(=O)O; Dil = CC[C@H](C)[C@H](NC)[C@@H](CC(=O)O)OC; X1 = C[C@@H](N*)[C@@H](O)c1ccccc1; NMeV = CN[C@H](C(=O)O)C(C)C

By IC50 is commonly meant the point on the concentration scale where inhibition reaches its midpoint. Take `CC[C@@]1(O)C(=O)OCc2c1cc1n(c2=O)Cc2c-1nc1cc3c(c4c1c2[C@@H](NC(=O)[C@@H](C)O)CC4)OCO3` [PBX-7016]: the IC50 in assay [1] was 460 pM; in assay [2] it was 6020 pM; in assay [3] (KYSE-520, 144 h), 2060 pM; in assay [4], 750 pM; in assay [5] it was 2870 pM; in assay [6], 1940 pM.

Regarding `CC[C@H](C)[C@@H]([C@@H](CC(=O)N1CCC[C@H]1[C@H](OC)[C@@H](C)C(=O)N[C@H](C)[C@@H](O)c1ccccc1)OC)N(C)C(=O)[C@@H](NC(=O)[C@@H](NC)C(C)C)C(C)C` [MMAE, monomethyl auristatin E] (H-[NMeV]V[Dil][Dolaproine]-X1), the IC50 in assay [1] (setting [7]) was determined as 160 pM; in assay [2] (MCF-7, 6 days incubation, read-out: IC50), 820 pM; in assay [3] (144 h, KYSE-520, 6 days incubation, read-out: IC50) it was 120 pM; in assay [4] (Caski, 6 days incubation, read-out: IC50), 34 pM; in assay [5] (setting [7]) it was 45 pM; in assay [6] (A431, 6 days incubation, read-out: IC50) it was 32 pM.

Values taken from EP4796130A1, “ANTI-TISSUE FACTOR ANTIBODY-DRUG CONJUGATE COMPRISING CAMPTOTHECIN DERIVATIVE” (Celltrion, Inc., priority 2023, dated 2025).
